Results published in patent US10759781B2, “Substituted guanidine derivatives” (UBE INDUSTRIES, LTD., priority 2015, dated 2020).

Molecular target: T1, Human VAP-1 enzyme (Homo sapiens, UniProt Q16853)
T1 construct: purchased R&D Systems, Inc
T1 sequence (Q16853 1-763): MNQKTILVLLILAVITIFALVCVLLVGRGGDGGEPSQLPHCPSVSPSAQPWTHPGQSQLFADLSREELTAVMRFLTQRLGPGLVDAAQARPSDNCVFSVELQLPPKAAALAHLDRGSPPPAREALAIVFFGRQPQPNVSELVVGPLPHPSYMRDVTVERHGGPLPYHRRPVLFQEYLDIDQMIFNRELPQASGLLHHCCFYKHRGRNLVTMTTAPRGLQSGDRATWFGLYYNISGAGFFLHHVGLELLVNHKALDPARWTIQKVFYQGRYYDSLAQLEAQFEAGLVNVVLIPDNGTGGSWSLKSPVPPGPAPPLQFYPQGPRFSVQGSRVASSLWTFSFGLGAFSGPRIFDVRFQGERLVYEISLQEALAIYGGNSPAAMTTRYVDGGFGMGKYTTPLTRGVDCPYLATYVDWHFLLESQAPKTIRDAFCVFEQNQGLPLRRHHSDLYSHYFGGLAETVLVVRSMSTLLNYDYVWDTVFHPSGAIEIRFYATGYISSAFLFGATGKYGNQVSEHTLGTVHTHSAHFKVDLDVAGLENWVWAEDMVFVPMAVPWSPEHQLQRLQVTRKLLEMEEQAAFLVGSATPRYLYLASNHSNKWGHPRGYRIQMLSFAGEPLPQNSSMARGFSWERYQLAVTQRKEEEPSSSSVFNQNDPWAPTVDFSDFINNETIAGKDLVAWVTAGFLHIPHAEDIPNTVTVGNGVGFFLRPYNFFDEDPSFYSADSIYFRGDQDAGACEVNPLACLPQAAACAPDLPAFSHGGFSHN
Assay: Human VAP-1 enzyme inhibition test
Format: biochemical
Conditions: 1 h; compound 30 nM; 14C-benzylamine 100 μM; read-out: inhibition ratio (human VAP-1 enzyme)
Procedure, shortened: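 Activity measured as radioactive oxidation product of 14C-benzylamine (100 μM final), extracted with toluene/ethyl acetate after citric acid stop and scintillation-counted. Enzyme (recombinant human VAP-1) first exposed to compound 20 min at room temperature, reaction then 1 h at 37 °C. Percent inhibition versus DMSO control.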

Compound | inhibition at 0.03 µM
N=C(N)NC(=O)OCc1cccc(-c2cnc(N3CC(=NOCCC(O)CO)C3)c(F)c2)c1F (centres unmarked) [Example 95, 3-(6-{3-[(3,4-Dihydroxybutoxy)imino]azetidin-1-yl}-5-fluoropyridin-3-yl)-2-fluorobenzyl carbamimidoylcarbamate] | ≥ 50%
CON=C1CN(c2ncc(-c3cccc(COC(=O)NC(=N)N)c3F)cc2F)C1 [Example 36, 2-fluoro-3-{5-fluoro-6-[3-(methoxyimino)azetidin-1-yl]pyridin-3-yl}benzyl carbamimidoylcarbamate] | ≥ 50%
[2H]C([2H])([2H])ON=C1CN(c2ncc(-c3cccc(COC(=O)NC(=N)N)c3F)cc2F)C1 [Example 37, 2-fluoro-3-(5-fluoro-6-{3-[(methoxy-d3)imino]azetidin-1-yl}pyridin-3-yl)benzyl carbamimidoylcarbamate] | ≥ 50%

Continued, values first:

inhibition at 0.03 µM | Compound
≥ 50% | N=C(N)NC(=O)OCc1cccc(-c2cnc(N3CC(=NOCC(CO)CO)C3)c(F)c2)c1F [Example 96, 2-Fluoro-3-{5-fluoro-6-[3-{[3-hydroxy-2-(hydroxymethyl)propoxy]imino}azetidin-1-yl]pyridin-3-yl}benzyl carbamimidoylcarbamate]
≥ 50% | N=C(N)NC(=O)OCc1cccc(-c2cnc(N3CC(=NOCC(F)CO)C3)nc2)c1F (centres unmarked) [Example 102, 2-Fluoro-3-(2-{3-[(2-fluoro-3-hydroxypropoxy)imino]azetidin-1-yl}pyrimidin-5-yl)benzyl carbamimidoylcarbamate]
